ChEMBL document CHEMBL1212738, “Phenotypic and genotypic characterization of Enterobacteriaceae with decreased susceptibility to carbapenems: results from large hospital-based surveillance studies in China” (2010)
≈ marks a conversion by molar mass, not a printed value.

Key:
Escherichia coli [1] = experiment: Antimicrobial activity against carbapenem-resistant Escherichia coli PU96 deficient in TEM-1, CTX-M-14, CMY-2, ompC/F by CLSI method; assay type: functional
Escherichia coli [2] = experiment: Antimicrobial activity against Escherichia coli C600 transconjugant WH76T expressing IMP-4, TEM-1, CTX-M-3, qnrS1 by CLSI method
Klebsiella pneumoniae [3] = experiment: Antimicrobial activity against Klebsiella pneumoniae CY1T expressing SHV-11, DHA-1 by CLSI method; assay type: functional
Escherichia coli [4] = experiment: Antimicrobial activity against carbapenem-resistant Escherichia coli PU102 deficient in TEM-1, CTX-M-14, CMY-2, aac(6')-Ib, ompC DEc, ompF by CLSI method; assay type: functional
Klebsiella pneumoniae [5] = experiment: Antimicrobial activity against carbapenem-resistant Klebsiella pneumoniae PU105 deficient TEM-1, SHV-12, CTX-M-14, DHA-1, qnrB10/B4-like, aac(6')-Ib-cr, ompK35/36 by CLSI method; assay type: functional
Klebsiella pneumoniae [6] = experiment: Antimicrobial activity against carbapenem-resistant Klebsiella pneumoniae ZJ70 deficient in KPC-2, SHV-11, CTX-M-14, ompK35/36 by CLSI method; assay type: functional
Klebsiella pneumoniae [7] = experiment: Antimicrobial activity against carbapenem-resistant Klebsiella pneumoniae PU3 deficient in DHA-1, aac(6')-Ib-cr, ompK35/36 by CLSI method; assay type: functional
Klebsiella pneumoniae [8] = experiment: Antimicrobial activity against carbapenem-resistant Klebsiella pneumoniae ZJ71 deficient in KPC-2, TEM-1, SHV-11, CTX-M-14, ompK35 by CLSI method; assay type: functional
Klebsiella pneumoniae [9] = experiment: Antimicrobial activity against carbapenem-resistant Klebsiella pneumoniae SX67 deficient in SHV-2, CTX-M-14, DHA-1, qnrB6/S1, aac(6')-Ib-cr, ompK35/36 by CLSI method; assay type: functional
Enterobacter cloacae [10] = experiment: Antimicrobial activity against carbapenem-resistant Enterobacter cloacae GX56 deficient in ompC and expressing low levels of ompF DE by CLSI method; assay type: functional
Enterobacter cloacae [11] = experiment: Antimicrobial activity against carbapenem-resistant Enterobacter cloacae NJ89 deficient in CTX-M-14, ompC/F by CLSI method; assay type: functional
Enterobacter cloacae [12] = experiment: Antimicrobial activity against carbapenem-resistant Enterobacter cloacae RJ94 deficient in IMP-4, TEM-1, CTX-M-3, ompC by CLSI method; assay type: functional
Escherichia coli [13] = experiment: Antimicrobial activity against Escherichia coli ZJ87T expressing KPC-2 by CLSI method; assay type: functional
Citrobacter freundii [14] = experiment: Antimicrobial activity against Citrobacter freundii SZ63 expressing IMP-4, qnrS1by CLSI method; assay type: functional
Klebsiella pneumoniae [15] = experiment: Antimicrobial activity against Klebsiella pneumoniae GZ64 expressing IMP-4, ompK35/36 by CLSI method; assay type: functional
Enterobacter cloacae [16] = experiment: Antimicrobial activity against carbapenem-resistant Enterobacter cloacae SZ92 deficient in IMP-4, TEM-1, CTX-M-14, DHA-1, qnrB10/B4-like, aac(6')-Ib, ompC by CLSI method; assay type: functional
Klebsiella pneumoniae [17] = experiment: Antimicrobial activity against carbapenem-resistant Klebsiella pneumoniae PU4 deficient in SHV-1, DHA-1, ompK35/36 by CLSI method; assay type: functional
Klebsiella pneumoniae [18] = experiment: Antimicrobial activity against Klebsiella pneumoniae ZJ68T expressing CTX-M-15 by CLSI method; assay type: functional
Klebsiella pneumoniae [19] = experiment: Antimicrobial activity against Klebsiella pneumoniae ZJ71T expressing KPC-2 by CLSI method; assay type: functional
Escherichia coli [20] = experiment: Antimicrobial activity against Escherichia coli PU101T expressing CMY-2 by CLSI method; assay type: functional
Escherichia coli [21] = experiment: Antimicrobial activity against carbapenem-resistant Escherichia coli PU101 deficient in TEM-1, CTX-M-14, CMY-2, ompC by CLSI method; assay type: functional
Enterobacter cloacae [22] = experiment: Antimicrobial activity against carbapenem-resistant Enterobacter cloacae SZ93 deficient in ompC by CLSI method; assay type: functional
Klebsiella pneumoniae [23] = experiment: Antimicrobial activity against carbapenem-resistant Klebsiella pneumoniae CY1 deficient in SHV-11, DHA-1, ompK35/36 by CLSI method; assay type: functional
Escherichia coli [24] = experiment: Antimicrobial activity against Escherichia coli C600 transconjugant SZ62T expressing IMP-4, qnrS1by CLSI method
Escherichia coli [25] = experiment: Antimicrobial activity against Escherichia coli PU60T expressing CMY-2 by CLSI method; assay type: functional
Klebsiella pneumoniae [26] = experiment: Antimicrobial activity against Klebsiella pneumoniae ZJ99T expressing KPC-2, CTX-M-3, qnrS1 by CLSI method; assay type: functional
Escherichia coli [27] = experiment: Antimicrobial activity against Escherichia coli HX74T expressing CTX-M-3 by CLSI method; assay type: functional
Klebsiella pneumoniae [28] = experiment: Antimicrobial activity against carbapenem-resistant Klebsiella pneumoniae GZ84 deficient in SHV-11, aac(6')-Ib-cr, ompK35 by CLSI method; assay type: functional
Klebsiella pneumoniae [29] = experiment: Antimicrobial activity against Klebsiella pneumoniae WH97 expressing SHV-33, aac(6')-Ib, ompK35 DE by CLSI method; assay type: functional
Klebsiella pneumoniae [30] = experiment: Antimicrobial activity against Klebsiella pneumoniae ZJ99 expressing KPC-2, CTX-M-3, qnrS1, ompK35 DE by CLSI method; assay type: functional
Klebsiella pneumoniae [31] = experiment: Antimicrobial activity against Klebsiella pneumoniae GZ64T expressing IMP-4 by CLSI method; assay type: functional
Klebsiella pneumoniae [32] = experiment: Antimicrobial activity against Klebsiella pneumoniae FZ47T expressing IMP-8, TEM-1, CTX-M-14, qnrB2, aac(6')-Ib by CLSI method; assay type: functional
Escherichia coli [33] = experiment: Antimicrobial activity against Escherichia coli C600 transconjugant XJ81T expressing TEM-1, SHV-12, aac(6')-Ib by CLSI method
Klebsiella pneumoniae [34] = experiment: Antimicrobial activity against carbapenem-resistant Klebsiella pneumoniae FZ47 deficient in IMP-8, TEM-1, SHV-11, CTX-M-14, qnrB2, aac(6')-Ib, ompK35/36 by CLSI method; assay type: functional
Klebsiella pneumoniae [35] = experiment: Antimicrobial activity against carbapenem-resistant Klebsiella pneumoniae PU104 deficient in TEM-1, SHV-11, CTX-M-15, qnrS1, ompK35/36 by CLSI method; assay type: functional
Citrobacter freundii [36] = experiment: Antimicrobial activity against Citrobacter freundii SZ62 expressing IMP-4, TEM-1, CMY-2, qnrS1, aac(6')-Ib-cr by CLSI method; assay type: functional
Klebsiella pneumoniae [37] = experiment: Antimicrobial activity against Klebsiella pneumoniae WH76 expressing IMP-4, TEM-1, SHV-14, CTX-M-3, qnrS1 by CLSI method; assay type: functional
Klebsiella pneumoniae [38] = experiment: Antimicrobial activity against carbapenem-resistant Klebsiella pneumoniae FZ49 deficient in IMP-8, TEM-1, SHV-11, CTX-M-14, qnrB2, aac(6')-Ib, ompK35/36 by CLSI method; assay type: functional
Escherichia coli [39] = experiment: Antimicrobial activity against carbapenem-resistant Escherichia coli PU60 deficient in TEM-1, CMY-2, ompC/F by CLSI method; assay type: functional
Enterobacter cloacae [40] = experiment: Antimicrobial activity against carbapenem-resistant Enterobacter cloacae NJ88 deficient in CTX-M-14, ompC/F by CLSI method; assay type: functional
Enterobacter cloacae [41] = experiment: Antimicrobial activity against carbapenem-resistant Enterobacter cloacae NJ90 deficient in CTX-M-14, ompC/F by CLSI method; assay type: functional

## CC(C)(O/N=C(\C(=O)N[C@@H]1C(=O)N2C(C(=O)[O-])=C(C[n+]3ccccc3)CS[C@H]12)c1csc(N)n1)C(=O)O [CEFTAZIDIME]
Escherichia coli [1]
  MIC: > 256 µg/mL
Escherichia coli [2]
  MIC: > 256 µg/mL
Klebsiella pneumoniae [3]
  MIC: 64 µg/mL (≈ 117 µM)
Escherichia coli [4]
  MIC: 64 µg/mL (≈ 117 µM)
Klebsiella pneumoniae [5]
  MIC: > 256 µg/mL
Klebsiella pneumoniae [6]
  MIC: 64 µg/mL (≈ 117 µM)
Klebsiella pneumoniae [7]
  MIC: 128 µg/mL (≈ 234 µM)
Klebsiella pneumoniae [8]
  MIC: 32 µg/mL (≈ 58.5 µM)
Klebsiella pneumoniae [9]
  MIC: > 256 µg/mL
Enterobacter cloacae [10]
  MIC: 256 µg/mL (≈ 468 µM)
Enterobacter cloacae [11]
  MIC: > 256 µg/mL
Enterobacter cloacae [12]
  MIC: > 256 µg/mL
Escherichia coli [13]
  MIC: 32 µg/mL (≈ 58.5 µM)
Citrobacter freundii [14]
  MIC: > 256 µg/mL
Klebsiella pneumoniae [15]
  MIC: > 256 µg/mL
Enterobacter cloacae [16]
  MIC: > 256 µg/mL
Klebsiella pneumoniae [17]
  MIC: 64 µg/mL (≈ 117 µM)
Klebsiella pneumoniae [18]
  MIC: 256 µg/mL (≈ 468 µM)
Klebsiella pneumoniae [19]
  MIC: 32 µg/mL (≈ 58.5 µM)
Escherichia coli [20]
  MIC: > 256 µg/mL
Escherichia coli [21]
  MIC: > 256 µg/mL
Enterobacter cloacae [22]
  MIC: 0.5 µg/mL (≈ 0.915 µM)
Klebsiella pneumoniae [23]
  MIC: 256 µg/mL (≈ 468 µM)
Escherichia coli [24]
  MIC: > 256 µg/mL
Escherichia coli [25]
  MIC: 64 µg/mL (≈ 117 µM)
Klebsiella pneumoniae [26]
  MIC: 128 µg/mL (≈ 234 µM)
Escherichia coli [27]
  MIC: 256 µg/mL (≈ 468 µM)
Klebsiella pneumoniae [28]
  MIC: 256 µg/mL (≈ 468 µM)
Klebsiella pneumoniae [29]
  MIC: > 256 µg/mL
Klebsiella pneumoniae [30]
  MIC: 64 µg/mL (≈ 117 µM)
Klebsiella pneumoniae [31]
  MIC: 256 µg/mL (≈ 468 µM)
Klebsiella pneumoniae [32]
  MIC: > 256 µg/mL
Escherichia coli [33]
  MIC: 64 µg/mL (≈ 117 µM)
Klebsiella pneumoniae [34]
  MIC: > 256 µg/mL
Klebsiella pneumoniae [35]
  MIC: > 256 µg/mL
Citrobacter freundii [36]
  MIC: > 256 µg/mL
Klebsiella pneumoniae [37]
  MIC: 256 µg/mL (≈ 468 µM)
Klebsiella pneumoniae [38]
  MIC: > 256 µg/mL
Escherichia coli [39]
  MIC: 256 µg/mL (≈ 468 µM)
Enterobacter cloacae [40]
  MIC: > 256 µg/mL
Enterobacter cloacae [41]
  MIC: > 256 µg/mL
